Measurements from patent US5776944A, “7-(4-aminomethyl-3-methyloxyiminopyrroplidin-1-yl)-1-cyclopropyl-6-flu oro-4-oxo-1,4-dihydro-1,8-naphthyridine-3-carboxylic acid and the process for the preparation thereof” (LG Chemical Ltd., priority 1994, dated 1998).
In brackets after ≈: the same amount, converted by molar mass. Where two headings read alike, the source gives them in different places.

Key:
Format in all cases: cell-based
[1] = system: Escherichia coli TEM3 3455E; experiment: microbe, parasite or virus in culture; details: TEM33455E, 18 h, read-out: Minimum Inhibitory Concentration
[2] = system: Klebsiella aerogenes 1082E; experiment: In vitro antibacterial activity (MIC, agar dilution), Biological Example 1; details: 18 h, Table 25, read-out: Minimum Inhibitory Concentration
[3] = system: Staphylococcus aureus 77; experiment: as above; details: 18 h; Staphylococcus aureus 77, Table 25; read-out: Minimum Inhibitory Concentration
[4] = system: Acinetobacter calcoaceticus 15473; experiment: as above; details: read-out: Minimum Inhibitory Concentration
[5] = system: Pseudomonas aeruginosa 10145; experiment: as above; details: 18 h; Pseudomonas aeruginosa 10145, Table 25; read-out: Minimum Inhibitory Concentration
[6] = system: Escherichia coli 3190Y; experiment: as above; details: 18 h, Table 25, read-out: Minimum Inhibitory Concentration
[7] = system: Bacillus subtilis 6633; experiment: as above; details: 18 h; Bacillus subtilis 6633, Table 25; read-out: Minimum Inhibitory Concentration
[8] = system: Citrobacter diversus 2046E; experiment: as above; details: Citrobacter koseri, 18 h, Table 25, read-out: Minimum Inhibitory Concentration
[9] = system: Klebsiella aerogenes 1976E; experiment: as above; details: 18 h, Table 25, read-out: Minimum Inhibitory Concentration
[10] = system: Staphylococcus aureus giorgio; experiment: as above; details: 18 h, Table 25, read-out: Minimum Inhibitory Concentration
[11] = system: Escherichia coli 851E; experiment: as above; details: 18 h, Table 25, read-out: Minimum Inhibitory Concentration
[12] = system: Escherichia coli 10536; experiment: as above; details: read-out: Minimum Inhibitory Concentration
[13] = system: Escherichia coli TEM9 2639E; experiment: microbe, parasite or virus in culture; details: TEM92639E, 18 h, read-out: Minimum Inhibitory Concentration
[14] = system: Escherichia coli TEM5 3739E; experiment: microbe, parasite or virus in culture; details: TEM53739E, 18 h, read-out: Minimum Inhibitory Concentration
[15] = system: Staphylococcus epidermidis 178; experiment: In vitro antibacterial activity (MIC, agar dilution), Biological Example 1; details: 18 h; Staphylococcus epidermidis 178, Table 25; read-out: Minimum Inhibitory Concentration
[16] = system: Salmonella typimurium 14028; experiment: as above; details: 18 h; Salmonella typimurium 14028, Table 25; read-out: Minimum Inhibitory Concentration
[17] = system: Micrococcus luteus 9341; experiment: as above; details: 18 h; Micrococcus luteus 9341, Table 25; read-out: Minimum Inhibitory Concentration
[18] = system: Staphylococcus aureus 241; experiment: as above; details: 18 h; Staphylococcus aureus 241, Table 25; read-out: Minimum Inhibitory Concentration
[19] = system: Enterobacter cloacae P99; experiment: microbe, parasite or virus in culture; details: P99, 18 h, read-out: Minimum Inhibitory Concentration
[20] = system: Staphylococcus aureus 6538p; experiment: In vitro antibacterial activity (MIC, agar dilution), Biological Example 1; details: 18 h, Table 25, read-out: Minimum Inhibitory Concentration
[21] = system: Pseudomonas aeruginosa 1912E; experiment: as above; details: 18 h, read-out: Minimum Inhibitory Concentration
[22] = system: Streptococcus faecalis 29212; experiment: as above; details: Enterococcus faecalis, 18 h; Streptococcus faecalis 29212, Table 25; read-out: Minimum Inhibitory Concentration
[23] = system: Staphylococcus epidermidis 887E; experiment: as above; details: 18 h, Table 25, read-out: Minimum Inhibitory Concentration
[24] = system: Enterobacter cloacae 1194E; experiment: microbe, parasite or virus in culture; details: 18 h, read-out: Minimum Inhibitory Concentration
[25] = 18 h, Acinetobacter calcoaceticus 15473, Table 25
[26] = 18 h, Escherichia coli 10536, Table 25
[27] = Pseudomonas aeruginosa 1912E, Table 25
[28] = Acinetobacter calcoaceticus, 15473, 18 h

| SMILES | MIC [1] [µg/mL] | MIC [2] [µg/mL] | MIC [3] [µg/mL] | MIC [5] [µg/mL] | MIC [6] [µg/mL] | MIC [7] [µg/mL] | MIC [8] [µg/mL] | MIC [9] [µg/mL] | MIC [10] [µg/mL] | MIC [11] [µg/mL] | MIC [13] [µg/mL] | MIC [14] [µg/mL] | MIC [15] [µg/mL] | MIC [16] [µg/mL] | MIC [17] [µg/mL] | MIC [18] [µg/mL] | MIC [19] [µg/mL] | MIC [20] [µg/mL] | MIC [22] [µg/mL] | MIC [23] [µg/mL] | other results |
| --- | --- | --- | --- | --- | --- | --- | --- | --- | --- | --- | --- | --- | --- | --- | --- | --- | --- | --- | --- | --- | --- |
| C#CCON=C1CN(c2nc3c(cc2F)c(=O)c(C(=O)O)cn3C2CC2)CC1CN (stereo not drawn) [Example 103] | 0.13 (≈ 0.314 µM) | 0.031 (≈ 0.075 µM) | ≤ 0.008 | 0.5 (≈ 1.21 µM) | ≤ 0.008 | ≤ 0.008 | 0.13 (≈ 0.314 µM) | 0.063 (≈ 0.152 µM) | ≤ 0.008 | ≤ 0.008 | 0.031 (≈ 0.075 µM) | 0.063 (≈ 0.152 µM) | 4 (≈ 9.68 µM) | 0.031 (≈ 0.075 µM) | 0.13 (≈ 0.314 µM) | 4 (≈ 9.68 µM) | ≤ 0.008 | ≤ 0.008 | 0.031 (≈ 0.075 µM) | ≤ 0.008 | MIC [4, 25]: 0.031 µg/mL (≈ 0.075 µM); MIC [12, 26]: ≤ 0.008 µg/mL; MIC [21, 27]: 0.5 µg/mL (≈ 1.21 µM); MIC [24]: 0.016 µg/mL (≈ 0.0387 µM) |
| C#CCCON=C1CN(c2nc3c(cc2F)c(=O)c(C(=O)O)cn3C2CC2)CC1CN (stereo not drawn) [Example 104] | 0.25 (≈ 0.585 µM) | 0.031 (≈ 0.0725 µM) | ≤ 0.008 | 1 (≈ 2.34 µM) | ≤ 0.008 | ≤ 0.008 | ≤ 0.008 | 0.13 (≈ 0.304 µM) | ≤ 0.008 | ≤ 0.008 | 0.031 (≈ 0.0725 µM) | 0.13 (≈ 0.304 µM) | 4 (≈ 9.36 µM) | 0.031 (≈ 0.0725 µM) | 0.13 (≈ 0.304 µM) | 8 (≈ 18.7 µM) | 0.016 (≈ 0.0374 µM) | ≤ 0.008 | 0.031 (≈ 0.0725 µM) | 0.016 (≈ 0.0374 µM) | MIC [4, 25]: ≤ 0.008 µg/mL; MIC [12, 26]: ≤ 0.008 µg/mL; MIC [21, 27]: 1 µg/mL (≈ 2.34 µM); MIC [24]: ≤ 0.008 µg/mL |
| CON=C1CN(c2c(F)cc3c(=O)c(C(=O)O)cn(C4CC4)c3c2Cl)CC1CN (stereo not drawn) [Example 178, 7-(4-aminomethyl-3-methoxyiminopyrrolidin-1-yl)-8-chloro-1-cycloprooyl-6-fluoro-4-oxo-1,4-dihydroquinoline-3-carboxylic acid] | 1 (≈ 2.36 µM) | 0.25 (≈ 0.591 µM) | 0.031 (≈ 0.0733 µM) | 1 (≈ 2.36 µM) | 0.016 (≈ 0.0378 µM) | 0.016 (≈ 0.0378 µM) | 0.13 (≈ 0.307 µM) | 0.5 (≈ 1.18 µM) | 0.016 (≈ 0.0378 µM) | 0.063 (≈ 0.149 µM) | 0.25 (≈ 0.591 µM) | 0.5 (≈ 1.18 µM) | 1 (≈ 2.36 µM) | 0.063 (≈ 0.149 µM) | 0.25 (≈ 0.591 µM) | 1 (≈ 2.36 µM) | 0.063 (≈ 0.149 µM) | 0.031 (≈ 0.0733 µM) | 0.063 (≈ 0.149 µM) | 0.031 (≈ 0.0733 µM) | MIC [4, 28]: 0.13 µg/mL (≈ 0.307 µM); MIC ([12]; Escherichia coli, 10536, 18 h): 0.031 µg/mL (≈ 0.0733 µM); MIC ([21]; Pseudomonas aeruginosa, 1912E): 0.5 µg/mL (≈ 1.18 µM); MIC [24]: 0.13 µg/mL (≈ 0.307 µM) |
| CON=C1CN(c2cc3c(cc2F)c(=O)c(C(=O)O)cn3C2CC2)CC1CN (stereo not drawn) [Example 179, 7-(4-aminomethyl-3-methoxyiminopyrrolidin-1-yl)-1-cyclopronyl-6-fluoro-4-oxo-1,4-dihydroquinoline-3-carboxylic acid] | 0.13 (≈ 0.335 µM) | 0.031 (≈ 0.0798 µM) | 0.031 (≈ 0.0798 µM) | 0.25 (≈ 0.644 µM) | ≤ 0.008 | ≤ 0.008 | 0.031 (≈ 0.0798 µM) | 0.13 (≈ 0.335 µM) | 0.016 (≈ 0.0412 µM) | ≤ 0.008 | 0.031 (≈ 0.0798 µM) | 0.063 (≈ 0.162 µM) | 2 (≈ 5.15 µM) | 0.063 (≈ 0.162 µM) | 0.13 (≈ 0.335 µM) | 2 (≈ 5.15 µM) | 0.008 (≈ 0.0206 µM) | ≤ 0.008 | 0.031 (≈ 0.0798 µM) | 0.016 (≈ 0.0412 µM) | MIC [4, 28]: 0.016 µg/mL (≈ 0.0412 µM); MIC ([12]; Escherichia coli, 10536, 18 h): < 0.008 µg/mL; MIC ([21]; Pseudomonas aeruginosa, 1912E): 0.25 µg/mL (≈ 0.644 µM); MIC [24]: 0.031 µg/mL (≈ 0.0798 µM) |
| CON=C1CN(c2nc3c(cc2F)c(=O)c(C(=O)O)cn3C2CC2)CC1CN (stereo not drawn) [Example 180, 7-(4-aminomethyl-3-methoxyiminonyrrolidin-1-yl)-1-cyclopropyl-6-fluoro-4-oxo-1,4-dihydro[1,8]naphthyridine-3-carboxylic acid] | 0.25 (≈ 0.642 µM) | 0.016 (≈ 0.0411 µM) | ≤ 0.008 | 0.25 (≈ 0.642 µM) | ≤ 0.008 | ≤ 0.008 | 0.016 (≈ 0.0411 µM) | 0.13 (≈ 0.334 µM) | ≤ 0.008 | ≤ 0.008 | 0.031 (≈ 0.0796 µM) | 0.13 (≈ 0.334 µM) | 2 (≈ 5.14 µM) | 0.031 (≈ 0.0796 µM) | 0.13 (≈ 0.334 µM) | 2 (≈ 5.14 µM) | ≤ 0.008 | ≤ 0.008 | 0.063 (≈ 0.162 µM) | ≤ 0.008 | MIC [4, 28]: 0.0634 µg/mL (≈ 0.163 µM); MIC ([12]; Escherichia coli, 10536, 18 h): ≤ 0.008 µg/mL; MIC ([21]; Pseudomonas aeruginosa, 1912E): 0.25 µg/mL (≈ 0.642 µM); MIC [24]: 0.031 µg/mL (≈ 0.0796 µM) |
